Source: publication PMC7922564, “Molecular Insights into an Antibiotic Enhancer Action of New Morpholine-Containing 5-Arylideneimidazolones in the Fight against MDR Bacteria” (International Journal of Molecular Sciences, 2021)
“And” between values parts separate entries of the source, which are not always exact repeats. Equal values may be shown once. Read-outs that look alike come from different tables or passages of the source.

Key:
[1] = tested on: K. aerogenes CM-64 (overexpression of AcrAB-TolC); experiment: MIC of compounds, K. aerogenes CM-64; format: cell-based; conditions: Klebsiella aerogenes, read-out: Minimal Inhibitory Concentration (MIC)
Text: (§1) A subset of compounds, namely 7, 12–16, 19, 20, was also examined for the potential to increase the effectiveness of the antibiotics chloramphenicol, erythromycin, doxycycline, and the fluoroquinolone antibiotic norfloxacin, which all are substrates for AcrAB-TolC in K. aerogenes. In addition to strain Ea-289, the adjuvant-like effect of the compounds was investigated in strain CM-64, which also overexpresses the AcrAB-TolC efflux pump, although it has no changes in porin content, and in the Ea-289 derivatives, i.e., Ea-294 and Ea-308, which are devoid of AcrAB (Table S17, Supplementary).
(§2) Determination of MIC values, i.e., intrinsic antibacterial activity, of products and antibiotics (oxacillin, ampicillin, vancomycin, ciprofloxacin, and erythromycin) in the presence and absence of compounds tested was conducted by the use of a standard 2-fold microdilution method in cation-adjusted Mueller Hinton broth following the Clinical and Laboratory Standards Institute (CLSI) guidelines. The MIC values were detected using an Infinite M200 pro Tecan microplate reader (Tecan® France, SA-Lyon, France). MIC determinations were conducted in 96-well microtiter plates and repeated 3–4 times.
(§3) MIC values of 5-arylideneimidazolone derivatives were determined following CLSI recommendations as in the methods described for S. aureus (Section 3.3.1).

[2] = tested on: K. aerogenes Ea-294, Ea-308 (devoid of AcrAB); experiment: MIC of compounds, K. aerogenes Ea-294, Ea-308; format: cell-based; conditions: Klebsiella aerogenes, read-out: Minimal Inhibitory Concentration (MIC)
Text: as §1, §2, §3

S. aureus ATCC 25923 = experiment: MIC determination (microdilution), S. aureus ATCC 25923; format: cell-based, Staphylococcus aureus; conditions: for MIC: Staphylococcus aureus, ATCC25923, unstarred values of column MIC value/no precipitation, read-out: MIC value
Method: as §2
(§4) Initially, MICs of a series of imidazolone derivatives were assessed against susceptible (reference) and MDR strains of staphylococci. Next, MIC values of the aforementioned antibiotics were determined in the absence and presence of imidazolone derivatives to assess the chemosensitizing effect of these compounds. […] 5-arylideneimidazolones and 5-arylidenethiazolones, which precipitated after addition to bacterial suspension in MH II medium, were tested at the highest concentrations at which precipitation was not observed. […] Antibacterial activity of compounds and antibiotics ampicillin, vancomycin, ciprofloxacin, and erythromycin was recorded as the lowest concentration of molecules able to inhibit bacterial growth after 18 h incubation at 37 °C. The incubation of bacterial strains exposed to oxacillin paired with compounds tested was conducted at 35 °C and extended to 24 h due to frequent occurrence of heterogeneity among MRSA strains. The results are presented as activity gain (A) parameter which was calculated as ratio of MIC of a certain antibiotic (MICAnt) to its MICAnt+Comp, observed in combination with a tested compound (7, 12–16, 19, or 20; Equation (1)). (1) A=(MICAnt/MICAnt+Comp)

MRSA 19449 = experiment: MIC determination (microdilution), MRSA 19449; format: cell-based, Staphylococcus aureus; conditions: for MIC: Staphylococcus aureus, MRSA, no precipitation
Method: as §2, §4

K. aerogenes CM-64 = experiment: MIC reduction assay (antibiotic adjuvant), K. aerogenes CM-64; format: cell-based, Klebsiella aerogenes; conditions: doxycycline, chloramphenicol, norfloxacin, erythromycin;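 note: compound at no more than one quarter of its own MIC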
Text: as §1, §4, §3

[3] = tested on: AcrAB-TolC efflux pump in K. aerogenes strain Ea-289; experiment: Real-time efflux (RTE) assay, 1,2'-dNA extrusion; format: cell-based, Klebsiella aerogenes; conditions: compound 100 µM; IE=100% total inhibition of efflux
Method: Compounds 7, 12–16, 19, and 20 were also assessed for their EPI property in K. aerogenes strain Ea-289 with the use of a real-time efflux (RTE) assay. Results for compounds 16 and 20 were previously described. The experiment is based on the measurement of the extrusion of a fluorescent dye from bacterial cells overproducing efflux pump transporters in the presence and absence of compounds tested. The dye used in this assay, 1,2’ –dinaphthylamine (1,2’-dNA), is a substrate for the AcrAB-TolC efflux pump, and is strongly fluorescent upon incorporation into a phospholipid bilayer, although it is almost non-fluorescent in an aqueous solution [37, 38].
A likewise strong blocking efficacy (IE = 83 %) was also noticed for compound 12, while the lowest inhibitory effect was found for compound 13 (IE = 23 %).
The inhibitory activity of 5-arylideneimidazolone derivatives towards AcrAB-TolC mediated efflux of 1,2’-dNA was detected in K. aerogenes strain Ea-289 by using a real-time fluorometric method. In a first step, bacterial cells were loaded with the environment-sensitive fluorescent membrane probe, 1,2’-dNA, in the presence of the EPI carbonyl cyanide m-chlorophenylhydrazone (CCCP) which inactivated the pump by dissipating membrane potential. Next, compounds tested were added at the concentration of 100 µM and the efflux was energizing by automated injection of glucose at a dose of 50 µM. The fluorescence intensity was measured in a microplate reader (Tecan) with an excitation wavelength of λex = 370 nm and an emission wavelength of λem = 420 nm.

[4] = tested on: K. aerogenes Ea-294, Ea-308; experiment: MIC reduction assay (antibiotic adjuvant), K. aerogenes Ea-294, Ea-308; format: cell-based, Klebsiella aerogenes; conditions: doxycycline, chloramphenicol, norfloxacin, erythromycin;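 note: compound at no more than one quarter of its own MIC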
Text: as §1, §4, §3

[5] = tested on: K. aerogenes Ea-289 (overexpression of AcrAB-TolC); experiment: MIC of compounds, K. aerogenes Ea-289; format: cell-based; conditions: Klebsiella aerogenes
Method: At first, MIC values of compounds were determined (Table S15, Supplementary). Next, their abilities to reduce MICs of the AcrAB-TolC substrates doxycycline (a tetracycline-class antibiotic) and erythromycin were studied (Table S16, Supplementary). […]
as §2, §3

K. aerogenes Ea-289 = experiment: MIC reduction assay (antibiotic adjuvant), K. aerogenes Ea-289; format: cell-based, Klebsiella aerogenes;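 note: compound at no more than one quarter of its own MIC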
Method: At first, MIC values of compounds were determined (Table S15, Supplementary). Next, their abilities to reduce MICs of the AcrAB-TolC substrates doxycycline (a tetracycline-class antibiotic) and erythromycin were studied (Table S16, Supplementary).
as §1, §4, §3

[6] = Stability in acidic and basic conditions (TLC); format: physicochemical; conditions: for Number of TLC spots: 1 = stable
Method: Compounds 9–12, 15, and 19 were also tested for their stability in acidic and basic conditions. This assay was carried out for 48 h and samples were taken at six-time intervals (10 min, 1 h, 2 h, 3 h, 24 h, 48 h). Stability of the compounds was determined using the TLC method. […] In basic conditions, only compounds 10 and 15 were stable for 24 h. […] Results with details, including time of degradation of products obtained, are presented in the Supplementary (Tables S19 and S20). […]
VI. Stability in different pH conditions
Stability of chosen compounds (9-12, 15, and 19) were determined using the TLC method. Assays were performed in acidic and basic conditions and were carried out for 48 h. Samples were taken at six-time intervals (10 min., 1 h, 2 h, 3 h, 24 h, 48 h). […]
of spots observed on TLC, where 1 indicate that compound is stable (only TLC spot for proper compound was observed). Higher values point out how many products of degradation was observed, which can be calculating by subtracting one from number of spots.
Table S19. Results of chosen compounds (9-12, 15, 19) stability in acidic conditions.
Compound Number of TLC spots in defined time
Table S20. Results of chosen compounds (9-12, 15, 19) stability in basic conditions.

[7] = Water solubility (UV spectroscopy); format: physicochemical
Text: Six representatives of 5-arylideneimidazolones (9–12, 15, 19) were chosen for the determination of water solubility. UV spectroscopy was used for the estimation of concentrations of compounds according to the method described earlier. Acquired UV absorbance, calculated means, and standard deviations for tested compounds are presented in Supplementary Table S18. Solubility results, presented in Table 6, point out that compounds from the same group (A or B, Table 1 and Table 2) with the two-ring aromatic moiety are more soluble than compounds with the fluorene motive (Group A: 9, 10, 11 vs. 12; Group B: 15 vs. 19). […] The most soluble of tested compounds was compound 15, which could be dissolved in water at a concentration of up to 205.502 mM/L.
Water solubility was obtained using UV spectroscopy method. Absorbance of tested solutions of compounds 9-12, 15, and 19, respectively in suitable dilution, in three repetitions as well as calculated arithmetic means, solubility and standard deviations are presented in Table S18. the solubility results […]
Table S18. Results of absorbance used for estimation of water solubility of tested compounds (9-12, 15, 19).
Abbreviations: A1, A2,and A3, UV absorbance in first, second, and third repetition; Amean, arithmetic mean of absorbance from three repetitions; s, standard deviation for absorbance; S, water solubility; SD – standard deviation for solubility. […]

[8] = read-out: MIC value/no precipitation
[9] = read-out: Minimal Inhibitory Concentration (MIC)
[10] = doxycycline, chloramphenicol, norfloxacin, erythromycin

SMILES	MIC (S. aureus ATCC 25923)	MIC (MRSA 19449)	MIC [5, 8]	A (activity gain) (K. aerogenes Ea-289; doxycycline)	A (activity gain) (K. aerogenes Ea-289; erythromycin)	Number of TLC spots ([6]; acidic conditions, 10 min)	Number of TLC spots ([6]; acidic conditions, 1 h)	Number of TLC spots ([6]; acidic conditions, 2 h)	Number of TLC spots ([6]; acidic conditions, 3 h)	Number of TLC spots ([6]; acidic conditions, 24 h)	Number of TLC spots ([6]; acidic conditions, 48 h)	Number of TLC spots ([6]; basic conditions, 10 min)	Number of TLC spots ([6]; basic conditions, 1 h)	Number of TLC spots ([6]; basic conditions, 2 h)	Number of TLC spots ([6]; basic conditions, 3 h)	Number of TLC spots ([6]; basic conditions, 24 h)	Number of TLC spots ([6]; basic conditions, 48 h)	solubility [7]	also measured
Cl.O=C1N=C(N2CCC(N3CCOCC3)CC2)N/C1=C\c1cccc2ccccc12 (hydrate or solvate) [Compound 11, (Z)-5-(Naphthalen-1-ylmethylene)-2-(4-Morpholinopiperidin-1-yl)-Imidazol-4(5H)-one Hydrochloride]	–	–	–	–	–	–	–	–	–	–	–	–	–	–	–	–	–	–	melting point: 244 to 249 °C
O=C1NC(N2CCOCC2)=N/C1=C\c1ccc(-c2ccccc2)cc1 [Compound 7]	31.2 to 250 µM	31.2 to 250 µM	> 250 µM	1	1	–	–	–	–	–	–	–	–	–	–	–	–	–	MIC [1]: > 2000 µM; MIC [2]: 2000 µM; A (activity gain) (K. aerogenes CM-64): 1; Inhibition efficiency (IE) towards extrusion of 1,2'-dNA [3]: 59%; A (activity gain) [4]: 1; MIC [5, 9]: > 2000 µM; A (activity gain) (K. aerogenes Ea-289; [10]): 1
O=C1NC(N2CCC(N3CCOCC3)CC2)=N/C1=C\c1ccc(-c2ccccc2)cc1 [Compound 8]	–	31.2 to 250 µM	> 250 µM	1	1	–	–	–	–	–	–	–	–	–	–	–	–	–	–
O=C1NC(N2CCC(N3CCOCC3)CC2)=N/C1=C\c1cccc(Oc2ccccc2)c1 [Compound 9]	31.2 to 250 µM	31.2 to 250 µM	> 250 µM	1	1	2	2	2	2	2	2	2	2	2	2	2	2	1480 µg/mL and 3170 µM	–
O=C1NC(N2CCC(N3CCOCC3)CC2)=N/C1=C\c1ccc(Oc2ccccc2)cc1 [Compound 10]	–	31.2 to 250 µM	> 250 µM	1	1	1	1	1	1	1	2	1	1	1	1	1	2	2680 µg/mL and 5740 µM	time stable ([6]; basic conditions): 24 h
Cl.O=C1N=C(N2CCC(N3CCOCC3)CC2)N/C1=C\c1cccc2ccccc12 [Compound 11, (Z)-5-(Naphthalen-1-ylmethylene)-2-(4-Morpholinopiperidin-1-yl)-Imidazol-4(5H)-one Hydrochloride]	31.2 to 250 µM	31.2 to 250 µM	> 250 µM	1	1	1	1	1	1	1	2	1	2	2	2	2	2	20200 µg/mL and 47300 µM	–
O=C1NC(N2CCC(N3CCOCC3)CC2)=N/C1=C\c1c2ccccc2cc2ccccc12 [Compound 13]	31.2 to 250 µM	31.2 to 250 µM	> 250 µM	1	1	–	–	–	–	–	–	–	–	–	–	–	–	–	MIC [1]: > 2000 µM; MIC [2]: 2000 µM; A (activity gain) (K. aerogenes CM-64): 1; Inhibition efficiency (IE) towards extrusion of 1,2'-dNA [3]: 23%; A (activity gain) [4]: 1; MIC [5, 9]: > 2000 µM; A (activity gain) (K. aerogenes Ea-289; [10]): 1
NC1=N/C(=C\c2ccc(Oc3ccccc3)cc2)C(=O)N1CCCN1CCOCC1 [Compound 17]	–	31.2 to 250 µM	> 250 µM	1	1	–	–	–	–	–	–	–	–	–	–	–	–	–	–
NC1=N/C(=C\c2cc3ccccc3c3ccccc23)C(=O)N1CCCN1CCOCC1 [Compound 21]	31.2 to 250 µM	31.2 to 250 µM	> 250 µM	1	1	–	–	–	–	–	–	–	–	–	–	–	–	–	–
Cc1onc(-c2ccccc2)c1C(=O)N[C@@H]1C(=O)N2[C@@H]1SC(C)(C)[C@@H]2C(=O)O [oxacillin, reference compound]	–	–	–	–	–	–	–	–	–	–	–	–	–	–	–	–	–	–	MIC of the antibiotic alone (S. aureus ATCC 25923; oxacillin alone): 0.25 µg/mL; MIC of the antibiotic alone (MRSA 19449; oxacillin alone): 256 µg/mL
